Where a name gives a salt, the structure may show the parent alone.

Test [1] has as its system Rat aortic smooth muscle cells. The test is described as follows: Delivery and retention of nanoparticles in cultured rat smooth muscle cells. Format: cell-based. The following applies: medium containing FITC alone. The protocol: Using the FITC-containing nanoparticles prepared in Experimental Example 3 (1), deliver and retention tests in cultured rat […] smooth muscle cell were performed.
Rat aortic smooth muscle cells (obtained from TOYOBO) were plated on a slide glass chamber to a subconfluent cell density in DMEM medium (Sigma) containing 10% fetal bovine serum (day 0). On day 2, the medium was changed to a medium containing FITC or FITC-containing nanoparticles (0.5 mg/mL in nanoparticles concentration).
At 5 min and 24 hr after medium exchange, the cells were fixed with methanol, the nucleus was stained with Propidium iodide (Vector laboratories, Inc.), and subjected to fluorescence microscope observation. The total number of nuclei and fluorescence positive cells were counted for each field of view, and the ratio of fluorescence positive cells was calculated.

Test [2] deals with mouse vascular injury model. The test is described as follows: Neointimal formation suppressive effect in mouse vascular injury model. Format: in vivo. To be noted: high dose systemic administration: single intraperitoneal, 28 days after wire injury. The protocol: Using the pioglitazone-containing nanoparticles obtained in Example 1, the neointimal formation suppressive effect in mouse vascular injury model was tested. […] The both ends of the blood vessel were ligated with a 6-0 silk thread to temporarily shut off the blood flow. The branch was incised, and a wire (diameter […], No. C—SF-15-15, COOK) was inserted by 5 mm in the iliac artery side to injure the blood vessel. After wire injury, the experimental animals were divided into a solvent control group and pioglitazone-containing nanoparticle group. The wire was removed, 100 μl, each of a solvent and a pioglitazone-containing PLGA nanoparticle solution was intraarterially administered from the branch over 5 min. The solvent control group was administered with the solvent (phosphate buffered saline) alone only once. The pioglitazone-containing nanoparticle group was administered with the pioglitazone-containing PLGA nanoparticles obtained in Example 1 (containing 0.5 mg/mouse as nanoparticles, corresponding to pioglitazone concentration of 0.015 mg/mouse (0.5 mg/kg body weight)) once. After administration, the branch part was ligated, the blood flow was resumed and the skin was sutured. Immediately after the wire injury, a high dose (10-fold amount of clinical dose) pioglitazone hydrochloride (0.15 mg/mouse (5 mg/kg body weight) as pioglitazone) single time intraperitoneal administration group was formed. At 28 days after vascular injury, the right femoral artery was washed and fixed with phosphate buffered saline and neutral buffered formalin via the heart, and isolated. A paraffin section was prepared and stained with Elastica van Gieson, proliferating cell nuclear antigen (PCNA) was immunohistochemically stained, and evaluated for the intima/media ratio, neointimal area, medial area and cell proliferation. For immunohistochemical staining, the proliferated cells were counted and the ratio of thereof to the total cell number was calculated.

With fluorescein isothiocyanate [FITC], in test [1], the “Ratio of fluorescence positive cells” value was 0%.
For `CCc1ccc(CCOc2ccc(CC3SC(=O)NC3=O)cc2)nc1` (stereo not shown) [Pioglitazone, pioglitazone hydrochloride], in test [2] (0.15 mg/mouse (5 mg/kg) as pioglitazone), the Intima/media ratio is reported as 2.3 ± 1.2. Besides, in test [2] (5 mg/kg as pioglitazone), the “Medial area (μm^2)” value came out at 14904 ± 2107 μm^2 and the “Neointimal area (μm^2)” value was determined as 23656 ± 8982 μm^2.
